Experiments:
[1] = p-nitrophenol release, […] nm, […] h; format: cell-based, Paenibacillus polymyxa; conditions: enzyme displayed on spores (immobilised), OD600 1; 1 mM substrate; 50 mM Tris-HCl pH 7.5; 4-70 °C; side activity of the synthase
Lip3 = target: T1, Lip3 (Paenibacillus polymyxa, UniProt A0ABX2ZB39); test: p-nitrophenol release, […] nm, […] h; format: cell-based; conditions: enzyme displayed on spores (immobilised), OD600 1; 1 mM substrate; 50 mM Tris-HCl pH 7.5; 4-70 °C
T1 construct: gene A7312_04500; fused via GGGGGSGGGGG linker to P. polymyxa CotE spore-coat anchor; gene amplified from DSM 365 genome (CP141264); printed NF024107.3 is a family model
T1 sequence (A0ABX2ZB39 1-335): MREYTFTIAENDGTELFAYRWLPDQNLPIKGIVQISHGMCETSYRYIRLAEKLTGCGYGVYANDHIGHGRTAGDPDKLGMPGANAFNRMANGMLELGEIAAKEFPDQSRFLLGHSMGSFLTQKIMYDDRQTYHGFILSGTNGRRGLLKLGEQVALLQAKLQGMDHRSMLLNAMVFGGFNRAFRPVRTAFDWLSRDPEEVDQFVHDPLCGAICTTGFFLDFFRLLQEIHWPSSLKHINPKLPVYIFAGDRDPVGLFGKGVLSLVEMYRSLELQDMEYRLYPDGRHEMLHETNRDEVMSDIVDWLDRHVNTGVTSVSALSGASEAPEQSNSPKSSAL

CCCCCCCC(=O)Oc1ccc([N+](=O)[O-])cc1 [C8, 4-Nitrophenyl-octanoate]
p-nitrophenol release, 410 nm, 1 h [1]: this enzyme showed hydrolytic activity for p-nitrophenyl caprylate (pNPC, C8)
p-nitrophenol release, 410 nm, 1 h (Lip3): The displayed Lip3 showed higher hydrolysis activity with rising temperature
